The results in this text go back to patent publication US20030187003A1, “Pharmaceutical compositions and method for the treatment of retroviral infections” (priority 2000, published 2003).

The subject of series [1] is HIV-1(IIIB). The series can be described thus: inhibition of virus-induced cytopathicity in MT-4 cells, HIV-1 (IIIB). It is filed as cell-based. The following applies: for EC50: MT-4 cells, viral cytopathic effect, 5 days post-infection.
A further series relates to HIV-1 L1. As to the kind of experiment: inhibition of virus-induced cytopathicity in MT-4 cells, HIV-1 clinical isolate L1. It is filed as cell-based. The following applies: Human immunodeficiency virus 1, MT4, 120 h, read-out: EC50 HIV-1 L1.
In the next series the test system is HIV-2 (ROD). As to the kind of experiment: inhibition of virus-induced cytopathicity in MT-4 cells, HIV-2 (ROD). The settings on record: Human immunodeficiency virus 2, MT4, 120 h, read-out: EC50 HIV-2 ROD. It is filed as cell-based.
Another series relates to HIV-2 (EHO). As to the kind of experiment: inhibition of virus-induced cytopathicity in MT-4 cells, HIV-2 (EHO). It is filed as cell-based. The settings on record: Human immunodeficiency virus 2, MT4, 120 h, read-out: EC50 HIV-2 EHO.
A further series has as its system SIV (MAC251). The series can be described thus: inhibition of virus-induced cytopathicity in MT-4 cells, SIV (MAC251). It is filed as cell-based, Simian immunodeficiency virus. The settings on record: Simian immunodeficiency virus, MT4, 120 h, read-out: EC50 SIV MAC251.
The nature of series [2]: cytotoxicity, viability of mock-infected cells. It is filed as cell-based. The following applies: human, viability of mock-infected MT-4 cells. How it is done:
Cytotoxicity of these compounds was determined in parallel by measuring the viability of mock-infected MT-4 or C8166 cells 5 days post-infection. The antiviral activity and cytotoxicity data, including average values and standard deviations for at least two separate experiments, are depicted in Table 2, wherein: CC50 represents the 50% cytotoxic concentration, i.e. the concentration that reduces by 50% the viability of MT-4 cells.

Another series has as its system HIV-1 NL43/AMD3100. The series can be described thus: microbe, parasite or virus in culture. Type of series: cell-based.
In another series the test system is HIV-1 L4. Type of series: cell-based.
For another series, the system named is HIV-1 L6. Type of series: cell-based. The settings on record: L6 versus wild type strain L1.
Series [3] concerns HIV-1(IIIB). As to the kind of experiment: time of addition experiment, viral p24 antigen production. Type of series: cell-based. The settings on record: MT-4 cells, m.o.i. 0.5, 250 μM, p24 at 31 hours post-infection. How it is done:
A time of addition experiment was carried out in order to investigate which step of the replicative cycle was inhibited by compound H. Briefly, this experiment determines how long the addition of an anti-HIV compound can be postponed before losing its antiviral activity in the viral replication cycle. MT-4 cells were infected with HIV-1(IIIB) at a multiplicity of infection (m.o.i.) of 0.5 in order to synchronize all steps of viral replication and the various antiviral test compounds were added at different times (ranging from 0 up to 26 hours) after infection. Viral p24 antigen production was determined 31 hours post-infection (using HIV-1 p24 Core Profile ELISA, Du Pont, Dreieich, Germany) and is expressed as the log10 of the p24 Ag content in pg/ml. Reference compounds with a known mode of action were included in this experiment. Dextran sulfate, a polyanion, interferes with binding of the virus to the cell. The nucleoside analogue AZT inhibits the reverse transcription process. Ritonavir is a proteolytic cleavage inhibitor. […]. Compound H was added at 250 μM. In FIG. 1 showing the results of this experiment, the following symbols were used: (●) for control, (▴) for dextran sulfate (20 μM), (▪) for AZT (1.9 μM), (▪) for ritonavir (2.8 μM) and (*) for compound H (250 μM).

The next series has as its target T1, integrase (Human immunodeficiency virus type 1 group M subtype B, UniProt P04585).
T1 construct: encoding HIV-1 IN (strain HTLV III); made in house; host or cells: E. coli PC1 (BL21(DE3)(pLysS) ΔendA::TcR)
As to the kind of experiment: kinetic cleavage assay, conversion of initial stable complex into cleaved product. Type of series: biochemical, HIV-1. The following applies: in the presence of 50 μM compound, added after preincubation with dextran sulfate. How it is done: When dextran sulfate with a molecular weight of 5,000 was added at a final concentration of 0.3 μM, further binding of integrase to the oligonucleotide was blocked. At several periods of time, 5 μl aliquots were taken and the reaction was stopped using 5 μl formamide loading buffer (having the same composition as above). The rate constant for the conversion of ISC into the cleaved product can be calculated using the formula: A-Be^−kt. In order to examine the inhibitory effect of compound H on 3′-processing, we repeated the same experiment in the presence of 50 μM compound (added after preincubation, together with dextran sulfate) and compared the rate constants: In the absence of compound H, it was calculated at 0.152±0.038 min^−1 in its presence at 0.147±0.025 min^−1. This quite similar value rules out that compound H directly affects the catalysis of 3′-processing.

Another series concerns the target T2, HIV-1 integrase (Human immunodeficiency virus type 1 group M subtype B, UniProt P04585).
T2 construct: HIV-1 integrase (100 μl of a 33 μM solution)
The series can be described thus: HIV-1 integrase binding assay, biosensor (BIAcore). The following applies: preincubation of integrase with 93 μM compound, 37° C. How it is done:
Binding experiments were carried out using biosensor technology on BlAcore2000 (Biacore) and sensor chips SA™ with pre-immobilized streptavidin. The binding experiment was carried out at 37° C. following the procedures of the manufacturer. The binding buffer B (20 mM HEPES at pH 7.5) contained 50 mM NaCI, 10 mM MgCl2 and 5 mM DTT. First, the 3′-biotinylated oligonucleotide 5′-[…]-3′ was bound to the sensor chip. Subsequently, the complementary 35-mer 5′-[…]-3′ was hybridized to the captured oligonucleotide, resulting in an integrase recognition sequence at the free end. HIV-1 integrase (100 μl of a 33 μM solution) diluted 10-fold in dilution buffer (10 mM Tris.HCl, pH7.5/750 mM NaCl/10% glycerol/1 mM β-mercaptoethanol) and another 10-fold in buffer B, was injected at a final concentration of 330 nM with a flow rate of 10 μl/minute passing first a blank channel and then the channel with the specific oligonucleotide. A specific adsorption in the blank channel was subtracted.

For series [4], the target named is T3, recombinant His-tagged HIV-1 integrase (Human immunodeficiency virus type 1 group M subtype B, UniProt P04585). As to the kind of experiment: HIV-1 integrase 3′-processing assay, oligonucleotide-based.
Procedure: (§1) Reactions were started by the addition of the enzyme. Inhibitors were incubated shortly with the reaction components before the addition of integrase. Reactions were allowed to proceed at 37° C. for 7 minutes and stopped by the addition of formamide loading buffer (95% formamide, 30 mM ethylenediamine tetraacetic acid, 0.1% xylene cyanol, 0.1% bromophenol blue, 0.1% sodium dilaurylsulfate SDS). In the overall integration assay, this reaction was allowed to proceed for 60 minutes before the addition of a formamide dye.
Series [5] has as its target T3, recombinant His-tagged HIV-1 integrase. As to the kind of experiment: HIV-1 integrase strand transfer assay, oligonucleotide-based.
For series [6] the target is unchanged. The series can be described thus: HIV-1 integrase overall integration assay, oligonucleotide-based.
Procedure: as §1

As for `O=[N+]([O-])c1ccc(C2c3c(O)nc(S)nc3Oc3nc(S)nc(O)c32)cc1` [compound H, 5-(4-nitrophenyl)-2,8-dithiol-4,6-dihydroxy-5H-pyrano[2,3-d:6,5-d′]dipyrimidine], the 50% effective concentration (EC50) with HIV-1(IIIB) [1] (Human immunodeficiency virus 1, IIIB, MT4, 120 h) was determined as 11.4 µM; in the series with HIV-1(IIIB) [1] it was 8.9 ± 0.7 µM; in the series with HIV-1 L1, 3.7 ± 1.8 µM; in the series on HIV-2 (ROD), 30 ± 6.2 µM; in the series on HIV-2 (EHO), 3.7 ± 0.1 µM; with SIV (MAC251), 5.5 ± 0.9 µM. The half-maximal effective concentration (EC50) with HIV-1 NL43/AMD3100 (Human immunodeficiency virus 1, NL43) was 19.1 ± 1.4 µM; in the series with HIV-1 L4 (Human immunodeficiency virus 1), 11.7 ± 0.7 µM. The “activity against the replication of HIV-1(IIIB)” value with HIV-1(IIIB) [1] (in words) is “active”. It took 121 µM to reach half-maximal cytotoxicity in [2] (CC50 at 5 days). Moreover, the “fold increase in EC50” value is listed as 1.3 in the series on HIV-1 NL43/AMD3100 (NL43/AMD3100 versus wild type strain NL4.3), 3.2 in the series on HIV-1 L4 (L4 versus wild type strain L1) and 2.8 in the series with HIV-1 L6. Besides, in the series with HIV-1 NL43/AMD3100 (in words), the “activity against HIV-1 strain resistant to bicyclam” value is reported as “active”. Moreover, in the series on HIV-1(IIIB) [3], the “time the addition can be postponed after virus infection” value amounted to 6 h. For the same compound, at integrase, the “rate constant for the conversion of ISC into the cleaved product” value is 0.147 ± 0.025 min⁻¹. Besides, at HIV-1 integrase, the “binding of integrase to the DNA” value is recorded as “completely abolished”. Moreover, the IC50 in series [4] worked out at 900 ± 400 nM; in series [5] it was 16.1 ± 10.7 µM; in series [6] it was 300 ± 200 nM. Besides, the “inhibition of the 3-processing reaction” value in series [4] (in words) is “inhibited”. In addition, the “effect on the DNA strand transfer reaction” value in series [5] (in words) is listed as “strong inhibitory effect”. In [6] (in words), the “inhibition of the overall integration reaction” value is on record as “inhibited”.
